In PMC6385889 (Chemical biology & drug design, 2011):
Values joined by “and” are separate entries in the source; they are usually repeats but may differ in a detail not shown here. Equal values may be shown once. Read-outs that look alike come from different tables or passages of the source.

Tests used:
[1] = test system: HIV-1 containing Y143R integrase; type: cell-based; conditions: cells infected with mutant vector
[2] = test system: HIV-1 containing N155H integrase; type: cell-based; conditions: cells infected with mutant vector
HIV-1 integrase Y143R = assay: In vitro ST assay, Y143R mutant IN; type: biochemical; conditions: mutant enzyme vs WT enzyme; pre-cleaved DNA, Mg2+
[3] = test system: HIV-1 containing wild-type (WT) integrase; assay: Antiviral assay, cells infected with HIV-1 vector containing WT integrase; type: cell-based
Cellular cytotoxicity = type: cell-based, human; conditions: human, HOS osteosarcoma cells
HOS cells = assay: Cellular cytotoxicity; type: cell-based, human; conditions: HOS cells
[4] = test system: HIV-1 integrase G140S/Q148H; conditions: mutant enzyme vs WT enzyme; pre-cleaved DNA, Mg2+
HIV-1 integrase N155H = assay: In vitro ST assay, N155H mutant IN; type: biochemical
[5] = test system: HIV-1 containing G140S/Q148H integrase; type: cell-based; conditions: cells infected with mutant vector
[6] = Human immunodeficiency virus 1, read-out: EC50 (WT)

Compound | Fold-loss of antiviral potency relative to virus containing WT enzyme, Y143R [1] | Fold-loss of antiviral potency relative to virus containing WT enzyme, N155H [2] | Fold-loss of potency relative to WT, Y143R (ST, in vitro) (HIV-1 integrase Y143R) | EC50 [3, 6] | CC50 at 48 h (Cellular cytotoxicity) | Cytotoxicity fold lower than catechol-containing analogue 3 (HOS cells; ratio of CC50 values) | Fold-loss of potency relative to WT, G140S/Q148H (ST, in vitro) [4] | Fold less sensitive than raltegravir to N155H mutation (in vitro) (HIV-1 integrase N155H; comparison of fold-losses, enzyme assay) | Fold-loss of potency relative to WT, N155H (ST, in vitro) (HIV-1 integrase N155H; mutant enzyme vs WT enzyme, pre-cleaved DNA, Mg2+) | Fold-loss of antiviral potency relative to virus containing WT enzyme, G140S/Q148H [5] | EC50 ([3]; read-out: EC50 (WT), HIV-1 vector with WT integrase) | CC50 (HOS cells; 48 hrs) | Fold-loss of antiviral potency relative to virus containing WT enzyme, G140S/Q148H ([5]; listed as MK-0536)
COC(=O)CCc1c2c(c(O)c(=O)n1C(C)C)C(=O)N(Cc1ccc(F)c(Cl)c1)C2=O [5e, Methyl 3-(2-(3-chloro-4-fluorobenzyl)-7-hydroxy-5-isopropyl-1,3,6-trioxo-2,3,5,6-tetrahydro-1H-pyrrolo[3,4-c]pyridin-4-yl)propanoate] | 2 fold and 2x fold | 3 fold and 3x fold | 2 fold and 2x fold | 9.2 ± 1.9 µM | 392 ± 66 µM | approximately 70 fold | 12 fold and 12x fold | approximately 2 fold | 4 fold and 4x fold | 2 fold and 2x fold |  |  | 
Cc1nnc(C(=O)NC(C)(C)c2nc(C(=O)NCc3ccc(F)cc3)c(O)c(=O)n2C)o1 [compound 1, raltegravir, reference compound] |  |  |  | 0.004 ± 0.002 µM | > 100 µM |  |  |  |  |  |  |  | 
CC(C)n1c(C(=O)N(C)C)c2c(c(O)c1=O)C(=O)N(Cc1ccc(F)c(Cl)c1)CC2 [compound 2, MK-0536, reference compound] | 0.4x fold | 1x fold |  |  |  |  |  |  |  | 5x fold | 0.017 ± 0.004 µM | > 100 µM | 5 fold
